# From patent US8653099B2, “Cold menthol receptor antagonists” (Janssen Pharmaceutica, priority 2008, dated 2014)
# pIC50: −log10 of the molar value. Values joined by “and” are separate entries in the source; they are usually repeats but may differ in a detail not shown here. Identical values can stand only once.
# How the values were obtained:
# canine TRPM8 = target: T1, canine TRPM8 (Canis lupus familiaris, UniProt Q1A7N1); assay: In vitro canine TRPM8 functional assay (icilin-induced Ca2+ fluorescence, FLIPR/FDSS); format: cell-based; conditions: for inhibition at 0.5 µM: HEK293, 0.5 μM compound; for pIC50: HEK293 cells stably expressing canine TRPM8, icilin at approx. 80% maximal response, eight-point dose-response; for inhibition at 0.2 µM: HEK293, 0.2 μM compound; for inhibition at 1 µM: HEK293, 1 μM compound
# T1 construct: expressed in transfected cells
# T1 sequence (Q1A7N1 1-1104): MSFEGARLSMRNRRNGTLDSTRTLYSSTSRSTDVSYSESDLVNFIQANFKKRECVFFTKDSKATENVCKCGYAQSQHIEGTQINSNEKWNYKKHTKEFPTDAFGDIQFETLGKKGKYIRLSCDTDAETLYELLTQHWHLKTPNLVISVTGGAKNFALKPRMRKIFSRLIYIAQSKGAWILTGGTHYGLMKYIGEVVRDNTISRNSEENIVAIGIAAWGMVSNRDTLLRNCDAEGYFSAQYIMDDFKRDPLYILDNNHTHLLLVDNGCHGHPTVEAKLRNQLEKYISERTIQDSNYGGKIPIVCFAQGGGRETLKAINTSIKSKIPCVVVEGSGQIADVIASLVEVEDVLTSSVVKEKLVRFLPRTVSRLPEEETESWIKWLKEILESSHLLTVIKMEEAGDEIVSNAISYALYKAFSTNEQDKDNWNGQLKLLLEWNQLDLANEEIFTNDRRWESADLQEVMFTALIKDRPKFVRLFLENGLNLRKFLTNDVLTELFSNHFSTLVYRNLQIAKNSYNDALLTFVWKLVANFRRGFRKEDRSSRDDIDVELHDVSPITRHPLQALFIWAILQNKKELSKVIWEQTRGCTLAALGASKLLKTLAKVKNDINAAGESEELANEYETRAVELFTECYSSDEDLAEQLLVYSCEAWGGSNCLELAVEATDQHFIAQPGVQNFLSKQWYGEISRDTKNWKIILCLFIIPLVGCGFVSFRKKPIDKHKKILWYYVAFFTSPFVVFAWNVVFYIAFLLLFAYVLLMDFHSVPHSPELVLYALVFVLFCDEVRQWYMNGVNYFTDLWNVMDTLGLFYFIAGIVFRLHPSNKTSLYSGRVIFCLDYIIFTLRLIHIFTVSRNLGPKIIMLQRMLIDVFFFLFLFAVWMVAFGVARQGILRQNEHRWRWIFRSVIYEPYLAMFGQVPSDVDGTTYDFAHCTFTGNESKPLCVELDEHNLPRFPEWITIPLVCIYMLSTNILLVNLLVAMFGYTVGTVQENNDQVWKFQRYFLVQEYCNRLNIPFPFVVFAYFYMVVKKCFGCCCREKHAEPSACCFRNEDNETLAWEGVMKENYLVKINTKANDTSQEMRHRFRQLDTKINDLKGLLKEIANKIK
# Experimental: The functional activity of compounds of the formula (I) was determined by measuring changes in intracellular calcium concentration using a Ca^2+-sensitive fluorescent dye. The changes in fluorescent signal were monitored by a fluorescence plate reader, either a FLIPR™ (Molecular Devices) or FDSS (Hamamatsu).
# HEK293 cells stably expressing canine TRPM8 were routinely grown as monolayers in Dulbecco's minimum essential medium supplemented with 10% FBS, 2 mM L-glutamine, 100 units/mL penicillin, 100 ug/mL streptomycin and 400 μg/mL G418. Cells were maintained in 5% CO2 at 37° C. At 24 hrs prior to assay, cells were seeded in black wall, clear-base poly-D-lysine coated 384-well plates (BD Biosciences, NJ, USA) at a density of 5,000 cells per well in culture medium and grown overnight in 5% CO2 at 37° C. On assay day, growth media was removed and cells were loaded with Calcium 3 Dye (Molecular Devices) for 35 min at 37° C., under 5% CO2 and then for 25 min at room temperature and atmosphere. Subsequently, cells were tested for agonist-induced increases in intracellular Ca^2+ levels using FLIPR™ or FDSS. Cells were challenged with compounds of the formula (I) (at varying concentrations) and intracellular Ca^2+ was measured for 5 min prior to the addition of icilin to all wells to achieve a final concentration that produces approximately an 80% maximal response.
# Maximal fluorescence intensity (FI) achieved upon addition of icilin was exported from the FLIPR or FDSS software and further analyzed using GraphPad Prism 3.02 (Graph Pad Software Inc., CA, U.S.A.). Basal FI was subtracted prior to normalizing data to percent of maximal response. Curves were generated using the average of quadruplicate wells for each data point, were analyzed using nonlinear regression of either sigmoidal dose response or sigmoidal dose response (variable slope). Finally, the EC50 and IC50 values were calculated with the best-fit dose curve determined by GraphPad Prism.
# Sprague-Dawley rats = assay: CFA-induced paw radiant heat hypersensitivity; format: in vivo; conditions: rat, 30 mg/kg PO, 24 h after intraplantar CFA, radiant heat withdrawal latency
# Experimental: Intraplantar injection of complete Freund's adjuvant (CFA) in rodents results in a long-lasting inflammatory reaction, characterized by a pronounced hypersensitivity to both thermal and mechanical stimuli. This hypersensitivity peaks between 24-72 hours following injection and can last for several weeks. To assess whether test compounds of the formula (I) reverse established hypersensitivity, a 100 μL intraplantar injection of CFA (suspended in a 1:1 emulsion of saline and heat-killed Mycobacterium tuberculosis in mineral oil) can be injected into a single hind paw of Sprague-Dawley rats (typically males ranging from 150-350 g). […]
# Each rat is placed in a test chamber on a warm glass surface and allowed to acclimate for approximately 10 minutes. […] An initial (baseline) response latency to the thermal stimulus is recorded for each animal prior to the injection of CFA. Twenty-four hours following intraplantar CFA injection, the response latency of the animal to the thermal stimulus is then re-evaluated and compared to the animal's baseline response time. […] Post-compound treatment withdrawal latencies are assessed at fixed time intervals, typically 30, 60 and 120 minutes. The percent reversal (% R) of hypersenstivitiy is calculated according to the following formula: % Reversal=(Treatment Response−CFA Response)/(Baseline Response−CFA Response)×100.
# [1] = HEK293 canine TRPM8, icilin challenge
SMILES,inhibition at 0.5 µM (canine TRPM8; [1]),pIC50 (canine TRPM8),other results
O=C(Nc1cccc2cnccc12)C(Nc1cccc(Cl)c1)c1ccc(C(F)(F)F)cc1 (stereo not shown) [Cpd 12],101%,6.58,
O=C(Nc1cccc2cnccc12)C(Nc1cc(F)ccc1F)c1ccc(Cl)cc1 (stereo not shown) [Cpd 53],,7.19,inhibition at 0.2 µM (canine TRPM8; [1]): 90%
Cc1ccccc1NC(C(=O)Nc1cccc2cnccc12)c1ccc(C(F)(F)F)cc1 (stereo not shown) [Cpd 22],104%,7.42,
O=C(Nc1cccc2[nH]ccc12)C(Nc1cccc(F)c1)c1ccc(C(F)(F)F)cc1 (stereo not shown) [Cpd 37],94%,6.66,
COc1ccccc1NC(C(=O)Nc1cccc2cnccc12)c1ccc(C(F)(F)F)cc1 (stereo not shown) [Cpd 21],95.3%,6.54,
CC(C)(C)c1ccc(C(Nc2ccccc2)C(=O)Nc2cccc3cn[nH]c23)cc1 (stereo not shown) [Cpd 20],101%,6.63,
O=C(Nc1cccc2cnccc12)C(Nc1ccccc1F)c1ccc(Br)cc1 (stereo not shown) [Cpd 41],98%,7.09,
O=C(Nc1cccc2cnccc12)C(Nc1ccc(F)cc1F)c1ccc(C(F)(F)F)cc1 (stereo not shown) [Cpd 50],98%,6.94,
"O=C(Nc1cccc2cnccc12)C(c1ccc(C(F)(F)F)cc1)N1CCc2ccccc21 (stereo not shown) [Cpd 18, 2-(Indolin-1-yl)-N-(isoquinolin-5-yl)-2-(4-(trifluoromethyl)phenyl)acetamide]",104%,6.99,
"O=C(Nc1cccc2cnccc12)C(Sc1ccccc1)c1ccc(C(F)(F)F)cc1 (stereo not shown) [Cpd 56, N-(Isoquinolin-5-yl)-2-(phenylthio)-2-(4-(trifluoromethyl)phenyl)acetamide]",,6.89,
CC(C)(C)c1ccc(C(Nc2ccccc2)C(=O)Nc2ccc3cnccc3c2)cc1 (stereo not shown) [Cpd 8],,6.36,inhibition at 1 µM (canine TRPM8; [1]): 97.5%
O=C(Nc1cccc2cnccc12)C(Nc1ccc(Cl)cc1)c1ccc(C(F)(F)F)cc1 (stereo not shown) [Cpd 13],86.9%,6.31,
CN(c1ccccc1)C(C(=O)Nc1cccc2cnccc12)c1ccc(C(C)(C)C)cc1 (stereo not shown) [Cpd 3],,6.52,inhibition at 1 µM (canine TRPM8; [1]): 101%
"O=C(Nc1cccc2cnccc12)C(Nc1ccccc1)c1ccc(C(F)(F)F)cc1 (stereo not shown) [Cpd 4, N-Isoquinolin-5-yl-2-phenylamino-2-(4-trifluoromethyl-phenyl)-acetamide]",104%,7.14 and 7.54,inhibition at 1 µM (canine TRPM8; [1]): 102%
O=C(Nc1cccc2cnccc12)C(c1ccc(C(F)(F)F)cc1)N1CCCc2ccccc21 (stereo not shown) [Cpd 19],79.7%,6.23,
O=C(Nc1cccc2[nH]ccc12)C(Nc1ccc(F)cc1)c1ccc(C(F)(F)F)cc1 (stereo not shown) [Cpd 34],84%,6.65,
O=C(Nc1cccc2ncccc12)C(Nc1cc(F)ccc1F)c1ccc(Cl)cc1 (stereo not shown) [Cpd 54],,6.97,inhibition at 0.2 µM (canine TRPM8; [1]): 77%
O=C(Nc1cccc2ncccc12)C(Nc1c(F)cccc1F)c1ccc(Cl)cc1 (stereo not shown) [Cpd 49],83%,7.04,
O=C(Nc1cccc2cnccc12)C(Nc1c(F)cccc1F)c1ccc(Cl)cc1 (stereo not shown) [Cpd 48],98%,7.03,
O=C(Nc1cccc2cnccc12)C(Nc1cccc(F)c1)c1ccc(C(F)(F)F)cc1 (stereo not shown) [Cpd 36],95%,6.92,

SMILES,inhibition at 0.5 µM (canine TRPM8; [1]),pIC50 (canine TRPM8),other results
"O=C(Nc1cccc2cnccc12)C(Nc1ccccc1F)c1ccc(C(F)(F)F)cc1 (stereo not shown) [Cpd 24, 2-(2-Fluorophenylamino)-N-(isoquinolin-5-yl)-2-(4-(trifluoromethyl)phenyl)acetamide]",104%,7.26 and 7.35,% Reversal @ 2 h (Sprague-Dawley rats): 28%
O=C(Nc1cccc2cnccc12)C(Nc1ccc(F)cc1)c1ccc(C(F)(F)F)cc1 (stereo not shown) [Cpd 35],99%,7.14,
O=C(Nc1cccc2ncccc12)C(Nc1cccc(F)c1F)c1ccc(Cl)cc1 (stereo not shown) [Cpd 52],80%,6.66,
O=C(Nc1cccc2[nH]ccc12)C(Nc1ccccc1)c1ccc(Cl)cc1 (stereo not shown) [Cpd 38],84%,6.74,
"O=C(Nc1cccc2cnccc12)C(Nc1ccccc1)c1ccc(C(F)(F)F)cc1 (single isomer, unassigned) [Cpd 30, N-Isoquinolin-5-yl-2-phenylamino-2-(4-trifluoromethyl-phenyl)-acetamide]",96%,6.59,
O=C(Nc1cccc2cnccc12)C(Nc1ccccc1)c1ccc(Cl)cc1 (stereo not shown) [Cpd 39],93%,6.80,
CC(C)(C)c1ccc(C(Nc2ccccc2)C(=O)Nc2cccc3[nH]ncc23)cc1 (stereo not shown) [Cpd 5],,6.93,inhibition at 1 µM (canine TRPM8; [1]): 100%
CC(C)(C)c1ccc(C(Nc2ccccc2)C(=O)Nc2cccc3cnccc23)cc1 (stereo not shown) [Cpd 1],,7.45,inhibition at 1 µM (canine TRPM8; [1]): 103%
"O=C(Nc1cccc2cnccc12)C(Nc1ccccc1)c1ccc(C(F)(F)F)cc1 (single isomer, unassigned) [Cpd 31, N-Isoquinolin-5-yl-2-phenylamino-2-(4-trifluoromethyl-phenyl)-acetamide]",,7.77,"% Inh @ 0.5 μM (canine TRPM8; 0.5 μM compound, HEK293 canine TRPM8, icilin challenge, 0.5 µM): 102.16%"
O=C(Nc1cccc2cnccc12)C(Nc1ccccc1Cl)c1ccc(C(F)(F)F)cc1 (stereo not shown) [Cpd 11],104%,7.05,
O=C(Nc1cccc2cn[nH]c12)C(Nc1ccccc1)c1ccc(C(F)(F)F)cc1 (stereo not shown) [Cpd 28],98.3%,6.79,
"O=C(NC1CCc2ccccc21)C(Nc1ccccc1)c1ccc(C(F)(F)F)cc1 (stereo not shown) [Cpd 10, N-Indan-1-yl-2-phenylamino-2-(4-trifluoromethyl-phenyl)-acetamide]",,6.80,inhibition at 1 µM (canine TRPM8; [1]): 100%
O=C(Nc1cccc2cnccc12)C(Nc1ccccc1)c1cccc(C(F)(F)F)c1 (stereo not shown) [Cpd 42],96%,6.96,
O=C(Nc1cccc2cnccc12)C(Nc1ccccc1F)c1ccc(Cl)cc1 (stereo not shown) [Cpd 44],98%,7.01,
Cc1cccc(C)c1NC(C(=O)Nc1cccc2cnccc12)c1ccc(C(F)(F)F)cc1 (stereo not shown) [Cpd 25],99%,6.56,
O=C(Nc1cccc2cccnc12)C(Nc1ccccc1)c1ccc(C(F)(F)F)cc1 (stereo not shown) [Cpd 29],85.1%,6.36,
O=C(Nc1cccc2cnccc12)C(Nc1cccc(F)c1F)c1ccc(Cl)cc1 (stereo not shown) [Cpd 51],87%,6.56,
CC(C)(C)c1ccc(C(Nc2ccccc2)C(=O)Nc2cccc3[nH]ccc23)cc1 (stereo not shown) [Cpd 7],,6.28,inhibition at 1 µM (canine TRPM8; [1]): 100%
O=C(Nc1cccc2[nH]ncc12)C(Nc1ccccc1)c1ccc(C(F)(F)F)cc1 (stereo not shown) [Cpd 27],101%,7.07,
